Measured values published in PMC6005348, “Betahistine Treatment in a Cat Model of Vestibular Pathology: Pharmacokinetic and Pharmacodynamic Approaches” (Frontiers in Neurology, 2018).
Read-outs that look alike come from different tables or passages of the source.

Tests used:
monoamine oxidase a/b = details: background statement, no reference given; cited from earlier work
[1] = Plasma pharmacokinetics of betahistine and 2-PAA after oral dosing in UVN cats (LC-MS/MS, non-compartmental analysis); assay type: in vivo, cat; details: for AUC / Cmax / Tmax / half-life: male, plasma, po; for half-life: read-out: Betahistine t1/2 (converted)
Method: The experiments were performed on nine adult male UVN cats randomly allocated into three groups of cats. Three groups of three adult male cats received 0.2 mg/kg betahistine (N = 3: cats 1–3), 2 mg/kg betahistine (N = 3: cats 4–6), or 0.2 mg/kg betahistine plus 1 mg/kg selegiline (N = 3: cats 7–9). […] The samples were frozen at −80°C until analysis. Pharmacokinetic parameters of betahistine and its major metabolite 2-PAA were calculated by applying non-compartmental analysis.
Betahistine and its internal standard, betahistine-d3, were extracted by liquid/liquid extraction from plasma under alkaline conditions toward 1-butanol/isooctane, followed by a second liquid/liquid extraction step of acidic 1-butanol/isooctane toward water. Betahistine concentration in plasma was analyzed using a validated LC-MS/MS method. In brief, an API 4000 (Applied Biosystems) mass spectrometer coupled with a Symbiosis HPLC system (Sparks, Emmen, The Netherlands) was employed to analyze betahistine. Extracts (100 μl) were injected into a XTerra RP18 150 ^* 4.6 mm, 3.5 μm column (Waters, Etten-Leur, The Netherlands) and separated at 30°C under isocratic conditions using an aqueous metanol solution containing 0.5 mM ammonium formate as mobile phase. Betahistine was quantified by a tandem mass spectrometer in positive MRM. Parent daughter transition was followed for betahistine (m/z 137 > 94). Betahistine-d3 dihydrochloride was used as internal standard. Pharmacokinetic parameters of betahistine were calculated by applying non-compartmental analysis using the validated PK software WinNonLin, version 5.23 (Pharsight Corporation, Mountain View, CA, USA).
Cmax and tmax were derived directly from the plasma concentration-time curves. Linear trapezoidal rule was used to calculate AUC0-t during the part of the curve with increasing plasma concentrations. For the descending part of the curve, the log-linear trapezoidal rule was used. Calculation of the elimination half-life (t1/2) was evaluated as ln 2/kel, with kel as the slope of the terminal phase of the plasma concentration-time curve.

[2] = cats, abstract statement, up to
[3] = 0.2 mg/kg, UVN cats, oral betahistine 0.2 mg/kg alone, day 1
[4] = 2 mg/kg, UVN cats, oral betahistine 2 mg/kg alone, day 1
[5] = 2 mg/kg, UVN cats, oral betahistine 2 mg/kg alone, day 21
[6] = UVN cats, oral betahistine 0.2 mg/kg plus selegiline 1 mg/kg, day 1
[7] = UVN cats, oral betahistine 0.2 mg/kg plus selegiline 1 mg/kg, day 21

Cmax- and AUC-values in cats compared to human ([1]; cats higher than human): 40–50 times | Increase of betahistine AUC by co administration of selegiline [1, 2]: ≤ 180 fold | Increase of betahistine Cmax by co administration of selegiline [1, 2]: up to 146 fold | AUC ([1]; 0.2 mg/kg, PK/PD table, DAY 2, BH 0.2 mg/kg, read-out: AUC (betahistine)): 3.65 ng·h/mL | Cmax ([1]; 0.2 mg/kg, PK/PD table, DAY 2, BH 0.2 mg/kg, read-out: Cmax (betahistine)): 4.11 ng/mL | Tmax [1, 3]: 0.25 h | AUC ([1]; 0.2 mg/kg, UVN cats, oral betahistine 0.2 mg/kg alone, day 1, read-out: Betahistine AUC): 3.7 ± 2.1 ng·h/mL | Cmax ([1]; 0.2 mg/kg, UVN cats, oral betahistine 0.2 mg/kg alone, day 1, read-out: Betahistine Cmax): 4.1 ± 2.9 ng/mL | half-life [1, 3]: 1.9 ± 0.7 h | Tmax ([1]; 0.2 mg/kg, UVN cats, oral betahistine 0.2 mg/kg alone, day 21): 2 h | half-life ([1]; 0.2 mg/kg, UVN cats, oral betahistine 0.2 mg/kg alone, day 21, n = 2): 4 h | AUC ([1]; 0.2 mg/kg, UVN cats, oral betahistine 0.2 mg/kg alone, day 21, read-out: Betahistine AUC): 1.5 ± 0.6 ng·h/mL | Cmax ([1]; 0.2 mg/kg, UVN cats, oral betahistine 0.2 mg/kg alone, day 21, read-out: Betahistine Cmax): 0.6 ± 0.4 ng/mL | AUC ([1]; 2 mg/kg, PK/PD table, DAY 2, BH 2.0 mg/kg, read-out: AUC (betahistine)): 26.7 ng·h/mL | Cmax ([1]; 2 mg/kg, PK/PD table, DAY 2, BH 2.0 mg/kg, read-out: Cmax (betahistine)): 54 ng/mL | Tmax [1, 4]: 0.25 h | AUC ([1]; 2 mg/kg, UVN cats, oral betahistine 2 mg/kg alone, day 1, read-out: Betahistine AUC): 19.7 ± 5 ng·h/mL | Cmax ([1]; 2 mg/kg, UVN cats, oral betahistine 2 mg/kg alone, day 1, read-out: Betahistine Cmax): 23.8 ± 11.2 ng/mL | half-life [1, 4]: 3 ± 2.6 h | Tmax [1, 5]: 0.5 h | AUC ([1]; 2 mg/kg, UVN cats, oral betahistine 2 mg/kg alone, day 21, read-out: Betahistine AUC): 51 ± 42.4 ng·h/mL | Cmax ([1]; 2 mg/kg, UVN cats, oral betahistine 2 mg/kg alone, day 21, read-out: Betahistine Cmax): 38.9 ± 34.9 ng/mL | half-life [1, 5]: 1.6 ± 0.3 h | AUC ([1]; PK/PD table, DAY 2, BH 0.2 mg/kg + Selegiline 1 mg/kg, read-out: AUC (betahistine)): 19.7 ng·h/mL | Cmax ([1]; PK/PD table, DAY 2, BH 0.2 mg/kg + Selegiline 1 mg/kg, read-out: Cmax (betahistine)): 23.8 ng/mL | Tmax [1, 6]: 0.25 h | AUC ([1]; UVN cats, oral betahistine 0.2 mg/kg plus selegiline 1 mg/kg, day 1, read-out: Betahistine AUC): 26.7 ± 24.1 ng·h/mL | half-life [1, 6]: 2.5 ± 0.5 h | Tmax [1, 7]: 1 h | AUC ([1]; UVN cats, oral betahistine 0.2 mg/kg plus selegiline 1 mg/kg, day 21, read-out: Betahistine AUC): 6.7 ± 5.1 ng·h/mL | Cmax ([1]; UVN cats, oral betahistine 0.2 mg/kg plus selegiline 1 mg/kg, day 21, read-out: Betahistine Cmax): 13.2 ± 13 ng/mL | half-life [1, 7]: 1.9 ± 0.4 h | Betahistine Cmax with versus without selegiline co-administration ([1]; repeated administration, day 21): 65 fold | Increase of betahistine AUC0−7h by selegiline 1 mg/kg ([1]; single administration, day 1): ~ 5 fold | Increase of betahistine Cmax by selegiline 1 mg/kg ([1]; single administration, day 1): ~ 5 fold
Structure (SMILES): CNCCc1ccccn1 [Betahistine, betahistine]
Share of the drug fastly metabolized by the monoamine oxidase a/b (monoamine oxidase a/b): 95%
